In US20240270762A1, “PENICILLIN-BINDING PROTEIN INHIBITORS” (priority 2021, published 2024):
Values after ≈ are worked out from the molar mass of the structure shown.

Columns and labels:
B. pseudomallei Bp82 = assay: microbe, parasite or virus in culture; type: cell-based; settings: Burkholderia pseudomallei, BP82, read-out: Minimum inhibitory concentration, B. pseudomallei Bp82
E. coli ATCC 25922 = assay: microbe, parasite or virus in culture; type: cell-based; settings: Escherichia coli, ATCC25922, read-out: MIC E. coli 25922
E. coli AG100 = assay: microbe, parasite or virus in culture; type: cell-based; settings: Escherichia coli, AG100, read-out: MIC E. coli AG100
E. coli 901C = assay: microbe, parasite or virus in culture; type: cell-based; settings: Escherichia coli, read-out: MIC E. coli 901C
E. coli D22 = assay: microbe, parasite or virus in culture; type: cell-based; settings: Escherichia coli, D22, read-out: MIC E. coli D22
E. coli AG100A = assay: Broth microdilution MIC in CAMHB; type: cell-based; settings: Escherichia coli, read-out: MIC E. coli AG100A
K. pneumoniae 848844 = assay: microbe, parasite or virus in culture; type: cell-based; settings: Klebsiella pneumoniae, 848844, read-out: MIC K. pneumoniae 848844
K. pneumoniae UMM = assay: microbe, parasite or virus in culture; type: cell-based; settings: Klebsiella pneumoniae, read-out: MIC K. pneumoniae UMM
K. pneumoniae SI-117 = assay: microbe, parasite or virus in culture; type: cell-based; settings: Klebsiella pneumoniae, SI117, read-out: MIC K. pneumoniae SI-117
P. aeruginosa ATCC 27853 = assay: microbe, parasite or virus in culture; type: cell-based; settings: Pseudomonas aeruginosa, ATCC27853, read-out: MIC P. aeruginosa ATCC 27853
A. baumannii ATCC 19606 = assay: microbe, parasite or virus in culture; type: cell-based; settings: Acinetobacter baumannii, ATCC19606, read-out: MIC, A. baumannii ATCC 19606
P. aeruginosa ATCC 35151 = assay: microbe, parasite or virus in culture; type: cell-based; settings: Pseudomonas aeruginosa, ATCC35151, read-out: MIC P. aeruginosa ATCC 35151
[1] = tested on: P. aeruginosa (ΔmexAB-oprM); assay: Broth microdilution MIC in CAMHB; type: cell-based; settings: Pseudomonas aeruginosa; read-out: MIC P. aeruginosa ΔmexAB-oprM
A. baumannii PBP1a = biological target: T1, A. baumannii PBP1a (Acinetobacter baumannii, UniProt A0ABX6CK30); assay: Bocillin-FL competition binding via gel filtration, A. baumannii PBP1a; settings: competition binding assay using Bocillin-FL via gel filtration; read-out: A. baumannii PBP1a Potency
T1 sequence (A0ABX6CK30 1-851): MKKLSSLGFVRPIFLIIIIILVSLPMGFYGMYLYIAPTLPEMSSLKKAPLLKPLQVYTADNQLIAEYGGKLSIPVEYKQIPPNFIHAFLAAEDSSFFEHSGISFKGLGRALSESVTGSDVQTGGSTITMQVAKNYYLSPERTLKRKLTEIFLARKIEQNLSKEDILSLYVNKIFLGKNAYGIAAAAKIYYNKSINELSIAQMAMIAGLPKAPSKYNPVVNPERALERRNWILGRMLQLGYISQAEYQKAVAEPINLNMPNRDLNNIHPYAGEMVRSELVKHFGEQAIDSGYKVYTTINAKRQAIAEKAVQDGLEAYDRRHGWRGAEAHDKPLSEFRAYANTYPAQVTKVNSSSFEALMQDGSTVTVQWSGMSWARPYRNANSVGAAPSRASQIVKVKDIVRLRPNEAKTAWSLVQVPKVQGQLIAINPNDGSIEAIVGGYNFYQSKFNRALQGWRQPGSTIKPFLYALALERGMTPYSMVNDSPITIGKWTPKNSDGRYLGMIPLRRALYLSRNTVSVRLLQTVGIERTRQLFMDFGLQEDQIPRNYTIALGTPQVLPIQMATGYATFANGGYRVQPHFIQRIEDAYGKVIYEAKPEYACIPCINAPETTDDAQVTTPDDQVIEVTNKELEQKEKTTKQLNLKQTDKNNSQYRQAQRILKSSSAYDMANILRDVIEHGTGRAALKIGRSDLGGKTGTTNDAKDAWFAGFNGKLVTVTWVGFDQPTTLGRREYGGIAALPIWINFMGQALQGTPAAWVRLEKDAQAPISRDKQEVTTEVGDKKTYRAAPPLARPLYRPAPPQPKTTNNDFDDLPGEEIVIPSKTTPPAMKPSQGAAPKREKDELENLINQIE
In short: (§1)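 Competitive equilibrium binding; reporter Bocillin-FL. PBP + inhibitor (titration) pre-incubated → Bocillin-FL, 15 min → gel filtration → fluorescence. EC50 from Hill fit of fraction bound vs [inhibitor].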

A. baumannii PBP2 = A. baumannii PBP2 (Acinetobacter baumannii, UniProt D0C8Z9); assay: Bocillin-FL competition binding via gel filtration, A. baumannii PBP2
In short: as §1

Sequence of A. baumannii PBP2 (D0C8Z9 whole entry): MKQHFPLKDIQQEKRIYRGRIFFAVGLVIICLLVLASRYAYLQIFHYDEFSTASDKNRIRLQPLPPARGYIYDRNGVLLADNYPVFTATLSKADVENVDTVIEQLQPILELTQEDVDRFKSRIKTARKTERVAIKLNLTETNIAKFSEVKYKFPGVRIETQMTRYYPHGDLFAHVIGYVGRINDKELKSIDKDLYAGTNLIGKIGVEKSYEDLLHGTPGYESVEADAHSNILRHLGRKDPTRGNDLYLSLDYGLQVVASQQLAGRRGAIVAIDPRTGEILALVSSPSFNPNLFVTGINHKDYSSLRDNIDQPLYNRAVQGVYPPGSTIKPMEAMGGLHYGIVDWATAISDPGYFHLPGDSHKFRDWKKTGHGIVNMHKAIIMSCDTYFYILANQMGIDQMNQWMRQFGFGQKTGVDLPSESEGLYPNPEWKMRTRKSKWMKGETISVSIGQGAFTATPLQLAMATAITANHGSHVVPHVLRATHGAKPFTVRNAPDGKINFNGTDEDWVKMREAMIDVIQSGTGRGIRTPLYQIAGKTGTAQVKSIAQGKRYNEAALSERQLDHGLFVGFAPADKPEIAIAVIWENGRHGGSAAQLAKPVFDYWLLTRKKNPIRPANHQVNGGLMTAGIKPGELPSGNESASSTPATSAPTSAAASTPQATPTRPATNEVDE

O=C(O)c1c(F)ccc2c1OB(O)[C@@H](NC(=O)C(NC(=O)N1CCN(CCCNC(=O)[C@@H]3CCCN3)C(=O)C1=O)c1cc(F)c(O)c(O)c1Cl)C2 (stereo partly drawn) [Example 212, (3R)-3-(2-(2-chloro-5-fluoro-3,4-dihydroxyphenyl)-2-(2,3-dioxo-4-(3-((S)-pyrrolidine-2-carboxamido)propyl)piperazine-1-carboxamido)acetamido)-7-fluoro-2-hydroxy-3,4-dihydro-2H-benzo[e][1,2]oxaborinine-8-carboxylic acid]
MIC (B. pseudomallei Bp82): < 1 µg/mL

O=C(NCCCN1CCN(C(=O)NC(C(=O)N[C@H]2Cc3ccc(F)c(C(=O)O)c3OB2O)c2cc(F)c(O)c(O)c2Cl)C1=O)c1ccncc1 (stereo partly drawn) [Example 256, (3R)-3-(2-(2-chloro-5-fluoro-3,4-dihydroxyphenyl)-2-(3-(3-(isonicotinamido)propyl)-2-oxoimidazolidine-1-carboxamido)acetamido)-7-fluoro-2-hydroxy-3,4-dihydro-2H-benzo[e][1,2]oxaborinine-8-carboxylic acid]
MIC (B. pseudomallei Bp82): < 1 µg/mL

O=C(O)c1cccc2c1OB(O)[C@@H](NC(=O)[C@@H](NC(=O)c1cnc3n(c1=O)CCS3)c1ccc(P(=O)(O)O)cc1)C2 (single isomer, unassigned) [Example 196]
MIC (E. coli ATCC 25922): > 128 µg/mL | MIC (E. coli AG100): > 128 µg/mL | MIC (E. coli 901C): 32 to 64 µg/mL (≈ 53.3 to 107 µM) | MIC (E. coli D22): > 128 µg/mL | MIC (E. coli AG100A): > 128 µg/mL | MIC (K. pneumoniae 848844): > 128 µg/mL | MIC (K. pneumoniae UMM): > 128 µg/mL | MIC (K. pneumoniae SI-117): > 128 µg/mL | MIC (P. aeruginosa ATCC 27853): > 128 µg/mL | MIC (A. baumannii ATCC 19606): > 128 µg/mL | MIC (P. aeruginosa ATCC 35151): 8 to 16 µg/mL (≈ 13.3 to 26.7 µM) | MIC [1]: > 128 µg/mL

CCN1CCN(C(=O)NC(C(=O)N[C@H]2Cc3cccc(C(=O)O)c3OB2O)c2ccc(P(=O)(O)O)c(F)c2O)C(=O)C1=O (stereo partly drawn) [Example 198, (3R)-3-(2-(4-ethyl-2,3-dioxopiperazine-1-carboxamido)-2-(3-fluoro-2-hydroxy-4-phosphonophenyl)acetamido)-2-hydroxy-3,4-dihydro-2H-benzo[e][1,2]oxaborinine-8-carboxylic acid]
MIC (E. coli ATCC 25922): > 128 µg/mL | MIC (E. coli AG100): > 128 µg/mL | MIC (E. coli 901C): < 1 µg/mL | MIC (E. coli D22): 8 to 16 µg/mL (≈ 12.9 to 25.7 µM) | MIC (E. coli AG100A): 32 to 64 µg/mL (≈ 51.4 to 103 µM) | MIC (K. pneumoniae 848844): > 128 µg/mL | MIC (K. pneumoniae UMM): 32 to 64 µg/mL (≈ 51.4 to 103 µM) | MIC (K. pneumoniae SI-117): > 128 µg/mL | MIC (P. aeruginosa ATCC 27853): > 128 µg/mL | MIC (A. baumannii ATCC 19606): 32 to 64 µg/mL (≈ 51.4 to 103 µM) | MIC (P. aeruginosa ATCC 35151): 8 to 16 µg/mL (≈ 12.9 to 25.7 µM) | MIC [1]: > 128 µg/mL

O=C(NCCCN1CCN(C(=O)NC(C(=O)N[C@H]2Cc3ccc(F)c(C(=O)O)c3OB2O)c2cc(F)c(O)c(O)c2Cl)C1=O)c1nccs1 (stereo partly drawn) [Example 257, (3R)-3-(2-(2-chloro-5-fluoro-3,4-dihydroxyphenyl)-2-(2-oxo-3-(3-(thiazole-2-carboxamido)propyl)imidazolidine-1-carboxamido)acetamido)-7-fluoro-2-hydroxy-3,4-dihydro-2H-benzo[e][1,2]oxaborinine-8-carboxylic acid]
MIC (B. pseudomallei Bp82): < 1 µg/mL

O=C(NCCCN1CCN(C(=O)N[C@@H](C(=O)N[C@H]2Cc3ccc(F)c(C(=O)O)c3OB2O)c2cc(F)c(O)c(O)c2Cl)C(=O)C1=O)c1cccnc1 [Example 210, (R)-3-((R)-2-(2-chloro-5-fluoro-3,4-dihydroxyphenyl)-2-(4-(3-(nicotinamido)propyl)-2,3-dioxopiperazine-1-carboxamido)acetamido)-7-fluoro-2-hydroxy-3,4-dihydro-2H-benzo[e][1,2]oxaborinine-8-carboxylic acid]
MIC (B. pseudomallei Bp82): < 1 µg/mL

O=C(NCCN1CCN(C(=O)N[C@@H](C(=O)N[C@H]2Cc3ccc(F)c(C(=O)O)c3OB2O)c2cc(F)c(O)c(O)c2Cl)C(=O)C1=O)Nc1ccncc1 [Example 221, (R)-3-((R)-2-(2-chloro-5-fluoro-3,4-dihydroxyphenyl)-2-(2,3-dioxo-4-(2-(3-(pyridin-4-yl)ureido)ethyl)piperazine-1-carboxamido)acetamido)-7-fluoro-2-hydroxy-3,4-dihydro-2H-benzo[e][1,2]oxaborinine-8-carboxylic acid]
MIC (B. pseudomallei Bp82): < 1 µg/mL

O=C(O)c1cccc2c1OB(O)[C@@H](NC(=O)[C@H](NC(=O)c1cnc3n(c1=O)CCS3)c1ccc(P(=O)(O)O)cc1)C2 (single isomer, unassigned) [Example 197]
MIC (E. coli ATCC 25922): > 128 µg/mL | MIC (E. coli AG100): > 128 µg/mL | MIC (E. coli 901C): 2 to 4 µg/mL (≈ 3.33 to 6.66 µM) | MIC (E. coli D22): 8 to 16 µg/mL (≈ 13.3 to 26.7 µM) | MIC (E. coli AG100A): > 128 µg/mL | MIC (K. pneumoniae 848844): > 128 µg/mL | MIC (K. pneumoniae UMM): > 128 µg/mL | MIC (K. pneumoniae SI-117): > 128 µg/mL | MIC (P. aeruginosa ATCC 27853): > 128 µg/mL | MIC (A. baumannii ATCC 19606): > 128 µg/mL | MIC (P. aeruginosa ATCC 35151): < 1 µg/mL | MIC [1]: 32 to 64 µg/mL (≈ 53.3 to 107 µM)

O=C(NCCS(=O)(=O)N1CCN(C(=O)NC(C(=O)N[C@H]2Cc3ccc(F)c(C(=O)O)c3OB2O)c2cc(F)c(O)c(O)c2Cl)C1=O)c1cccc(O)c1 (stereo partly drawn) [Example 261, (3R)-3-(2-(2-chloro-5-fluoro-3,4-dihydroxyphenyl)-2-(3-((2-(3-hydroxybenzamido)ethyl)sulfonyl)-2-oxoimidazolidine-1-carboxamido)acetamido)-7-fluoro-2-hydroxy-3,4-dihydro-2H-benzo[e][1,2]oxaborinine-8-carboxylic acid]
EC50 (A. baumannii PBP1a): 10 to 50 µM | EC50 (A. baumannii PBP2): 10 to 50 µM

O=C(NCCCS(=O)(=O)N1CCN(C(=O)N[C@@H](C(=O)N[C@H]2Cc3ccc(F)c(C(=O)O)c3OB2O)c2cc(F)c(O)c(O)c2Cl)C1=O)c1cccc(O)c1 [Example 271, (R)-3-((R)-2-(2-chloro-5-fluoro-3,4-dihydroxyphenyl)-2-(3-((3-(3-hydroxybenzamido)propyl)sulfonyl)-2-oxoimidazolidine-1-carboxamido)acetamido)-7-fluoro-2-hydroxy-3,4-dihydro-2H-benzo[e][1,2]oxaborinine-8-carboxylic acid]
EC50 (A. baumannii PBP1a): < 10 µM | EC50 (A. baumannii PBP2): < 10 µM

O=C(NCCCS(=O)(=O)N1CCN(C(=O)NC(C(=O)N[C@H]2Cc3ccc(F)c(C(=O)O)c3OB2O)c2cc(F)c(O)c(O)c2Cl)C1=O)c1ccc(O)cc1 (stereo partly drawn) [Example 269, (3R)-3-(2-(2-chloro-5-fluoro-3,4-dihydroxyphenyl)-2-(3-((3-(4-hydroxybenzamido)propyl)sulfonyl)-2-oxoimidazolidine-1-carboxamido)acetamido)-7-fluoro-2-hydroxy-3,4-dihydro-2H-benzo[e][1,2]oxaborinine-8-carboxylic acid]
EC50 (A. baumannii PBP1a): < 10 µM | EC50 (A. baumannii PBP2): 10 to 50 µM

O=C(NCCN1CCN(C(=O)NC(C(=O)N[C@H]2Cc3ccc(F)c(C(=O)O)c3OB2O)c2cc(F)c(O)c(O)c2Cl)C(=O)C1=O)Nc1cccc(O)c1 (stereo partly drawn) [Example 220, (3R)-3-(2-(2-chloro-5-fluoro-3,4-dihydroxyphenyl)-2-(4-(2-(3-(3-hydroxyphenyl)ureido)ethyl)-2,3-dioxopiperazine-1-carboxamido)acetamido)-7-fluoro-2-hydroxy-3,4-dihydro-2H-benzo[e][1,2]oxaborinine-8-carboxylic acid]
EC50 (A. baumannii PBP1a): < 10 µM | EC50 (A. baumannii PBP2): < 10 µM

O=C(NCCCN1CCN(C(=O)NC(C(=O)N[C@H]2Cc3ccc(F)c(C(=O)O)c3OB2O)c2cc(F)c(O)c(O)c2Cl)C(=O)C1=O)c1ccccc1 (stereo partly drawn) [Example 202, (3R)-3-(2-(4-(3-benzamidopropyl)-2,3-dioxopiperazine-1-carboxamido)-2-(2-chloro-5-fluoro-3,4-dihydroxyphenyl)acetamido)-7-fluoro-2-hydroxy-3,4-dihydro-2H-benzo[e][1,2]oxaborinine-8-carboxylic acid]
EC50 (A. baumannii PBP1a): 10 to 50 µM | EC50 (A. baumannii PBP2): 50 to 250 µM
